Counter-ions that a name gives are not always drawn.
System: spontaneously hypertensive rats (SHR)
Assay: Diuretic activity in spontaneously hypertensive rats
Format: in vivo, male spontaneously hypertensive rats (Okamoto strain)
Details: 100 mg/kg by gavage with 0.9% sodium chloride loading 25 ml/kg; 0-5 hour urine
Procedure: The diuretic activity of the compounds of this invention was also determined according to the method of Chan, P. S. and Poorvin, D., Sequential method for combined screening antihypertensive and diuretic agents in the same spontaneously hypertensive rat. Clinical and Experimental Hypertension, 1(6), 817-830 (1979).
Male spontaneously hypertensive rats (SHR) of Okamoto strain, 16 weeks old, Taconic Farms Inc. were used in the test. These rats were kept on Purina laboratory chow and tap water ad libitum for 8 weeks before use. One male adult rat (about 300 g) was dosed by gavage with a test compound at 100 mg/kg together with 0.9% sodium chloride loading at 25 ml/kg at zero hour. The test compound was suspended in 3% preboiled starch at 50 mg/ml. The rat was put in a metabolism cage. The 0-5 hour urine was collected and urinary sodium and potassium were determined using a Beckman Astra 4. The effects of representative compounds of the invention according to this test appear in Table III expressed in milliequivalents (mEQ) of urinary sodium and potassium excreted.

Structure (SMILES) | Potassium (urinary excretion) | Sodium (urinary excretion) | Volume (urine)
O=C(N=P(c1ccccc1)(c1ccccc1)c1ccccc1C(F)(F)F)OC1CCOC1 (stereo not drawn) [[diphenyl[2-(trifluoromethyl)phenyl]phosphoranylidene]carbamic acid, tetrahydro-3-furanyl ester] | 0.63 mEQ/5 Hours | 1.64 mEQ/5 Hours | 16.3 mL
CCC1(OC(=O)N=P(c2ccccc2)(c2ccccc2)c2ccccc2)CCCC1 [(triphenylphosphoranylidene)carbamic acid, 1-ethylcyclopentyl ester] | 1.01 mEQ/5 Hours | 1.34 mEQ/5 Hours | 12.5 mL
O=C(N=P(c1ccccc1)(c1ccccc1)c1ccccc1)OC1C=CCC1 (stereo not drawn) [(triphenylphosphoranylidene)carbamic acid, 2-cyclopenten-1-yl ester] | 0.83 mEQ/5 Hours | 1.58 mEQ/5 Hours | 15.5 mL
O=C(N=P(c1ccccc1)(c1ccccc1)c1ccccc1)OCC1CC1 [(Triphenylphosphoranylidene)carbamic acid, cyclopropylmethyl ester] | 0.57 mEQ/5 Hours | 2.00 mEQ/5 Hours | 19.5 mL
CCOC(=O)N=P(c1ccccc1)(c1ccccc1)c1c(C)cccc1C [[[(2,6-dimethylphenyl)diphenyl]phosphoranylidene]carbamic acid, ethyl ester] | 0.86 mEQ/5 Hours | 1.48 mEQ/5 Hours | 13.0 mL
O=C(N=P(c1ccccc1)(c1ccccc1)c1ccccc1)OC(C1CC1)C1CC1 [(triphenylphosphoranylidene)carbamic acid, dicyclopropylmethyl ester] | 1.07 mEQ/5 Hours | 1.58 mEQ/5 Hours | 14.3 mL
C[C@@H]1CCC[C@H]1OC(=O)N=P(c1ccccc1)(c1ccccc1)c1ccccc1 (relative stereo) [(triphenylphosphoranylidene)carbamic acid, trans-2-methylcyclopentyl ester] | 0.68 mEQ/5 Hours | 1.55 mEQ/5 Hours | 14.3 mL
CCOC(=O)N=P(c1ccccc1)(c1ccccc1)c1cccc(F)c1 [[[(3-fluorophenyl)diphenylphosphoranylidene]carbamic acid, ethyl ester] | 0.62 mEQ/5 Hours | 2.44 mEQ/5 Hours | 24.0 mL
CCOC(=O)N=P(c1ccccc1)(c1ccccc1)c1ccccc1Br [[(2-bromophenyl)diphenylphosphoranylidene]carbamic acid, ethyl ester] | 0.68 mEQ/5 Hours | 2.51 mEQ/5 Hours | 22.5 mL
CC#CCOC(=O)N=P(c1ccccc1)(c1ccccc1)c1ccccc1 [(triphenylphosphoranylidene)carbamic acid, 2-butynyl ester] | 0.57 mEQ/5 Hours | 1.15 mEQ/5 Hours | 10.0 mL
CCOC(=O)N=P(c1ccccc1)(c1ccccc1)c1cccc(Br)c1 [[(3-Bromophenyl)diphenylphosphoranylidene]carbamic acid, ethyl ester] | 0.78 mEQ/5 Hours | 1.16 mEQ/5 Hours | 12.4 mL
COC(=O)N=P(c1ccccc1)(c1ccccc1C)c1ccccc1C [[Bis(2-methylphenyl)phenylphosphoranylidene]carbamic acid, methyl ester] | 0.76 mEQ/5 Hours | 1.45 mEQ/5 Hours | 13.5 mL
Cc1ccccc1P(=N)(c1ccccc1)c1ccccc1 [(2-Methylphenyl)diphenylphosphinimide sulfate] | 0.68 mEQ/5 Hours | 1.88 mEQ/5 Hours | 16.3 mL
O=C(N=P(c1ccccc1)(c1ccccc1)c1ccccc1)OC1CCCC1 [(triphenylphosphoranylidene)carbamic acid, cyclopentyl ester] | 0.80 mEQ/5 Hours | 1.48 mEQ/5 Hours | 14.0 mL
Cc1ccccc1P(=N)(c1ccccc1)c1ccccc1C [[Bis(2-methylphenyl)phenyl]phosphinimide sulfate] | 0.88 mEQ/5 Hours | 1.44 mEQ/5 Hours | 13.0 mL
O=C(N=P(c1ccccc1)(c1ccccc1)c1ccccc1)OCc1ccncc1 [(triphenylphosphoranylidene)carbamic acid, 4-pyridinylmethyl ester] | 0.70 mEQ/5 Hours | 1.50 mEQ/5 Hours | 16.5 mL

Structure (SMILES) | Potassium (urinary excretion) | Sodium (urinary excretion) | Volume (urine)
O=C(N=P(c1ccccc1)(c1ccccc1)c1ccccc1)OC1CCOCC1 [(triphenylphosphoranylidene)carbamic acid, tetrahydro-2 --H--pyran-4-yl ester] | 0.64 mEQ/5 Hours | 1.60 mEQ/5 Hours | 15.3 mL
C#CCOC(=O)N=P(c1ccccc1)(c1ccccc1)c1ccccc1 [(triphenylphosphoranylidene)carbamic acid, 2-propynyl ester] | 0.58 mEQ/5 Hours | 1.76 mEQ/5 Hours | 15.5 mL
O=C(N=P(c1ccccc1)(c1ccccc1)c1ccccc1Cl)OC1CCOC1 (stereo not drawn) [[(2-chlorophenyl)diphenylphosphoranylidene]carbamic acid, tetrahydro-3-furanyl ester] | 0.68 mEQ/5 Hours | 1.90 mEQ/5 Hours | 20.0 mL
CCc1ccccc1P(=NC(=O)OC)(c1ccccc1)c1ccccc1 [[(2-ethylphenyl)diphenylphosphoranylidene]carbamic acid, methyl ester] | 0.58 mEQ/5 Hours | 1.36 mEQ/5 Hours | 14.3 mL
CO[C@@H]1CCC[C@H]1OC(=O)N=P(c1ccccc1)(c1ccccc1)c1ccccc1 (relative stereo) [(triphenylphosphoranylidene)carbamic acid, trans-2-methoxycyclopentyl ester] | 0.72 mEQ/5 Hours | 1.83 mEQ/5 Hours | 17.0 mL
COC(=O)N=P(c1ccccc1)(c1ccccc1)c1cccc(Cl)c1 [[(3-chlorophenyl)diphenylphosphoranylidene]carbamic acid, methyl ester] | 0.60 mEQ/5 Hours | 2.45 mEQ/5 Hours | 23.0 mL
CC1(OC(=O)N=P(c2ccccc2)(c2ccccc2)c2ccccc2)CCCC1 [(Triphenylphosphoranylidene)carbamic acid, 1-methylcyclopentyl ester] | 0.86 mEQ/5 Hours | 1.49 mEQ/5 Hours | 14.8 mL
CCOC(=O)N=P(c1ccccc1)(c1cccc(Cl)c1)c1cccc(Cl)c1 [[[bis(3-chlorophenyl)phenyl]phosphoranylidene]carbamic acid, ethyl ester] | 0.89 mEQ/5 Hours | 1.84 mEQ/5 Hours | 18.3 mL
CCOC(=O)N=P(c1ccccc1)(c1ccccc1)c1ccccc1C(C)C [[[2-(1-Methylethyl)phenyl]diphenylphosphoranylidene]carbamic acid, ethyl ester] | 0.83 mEQ/5 Hours | 2.08 mEQ/5 Hours | 18.8 mL
CC(=O)CCCOC(=O)N=P(c1ccccc1)(c1ccccc1)c1ccccc1 [(triphenylphosphoranylidene)carbamic acid, 4-oxo-pentan-1-yl ester] | 0.58 mEQ/5 Hours | 1.16 mEQ/5 Hours | 13.3 mL
N=P(c1ccccc1)(c1ccccc1)c1ccccc1 [Triphenylphosphinimide sulfate] | 0.65 mEQ/5 Hours | 1.25 mEQ/5 Hours | 12.0 mL
CCOC(=O)N=P(c1ccccc1)(c1ccccc1)c1cccc(C(F)(F)F)c1 [[(3-trifluorophenyl)diphenylphosphoranylidene]carbamic acid, ethyl ester] | 0.67 mEQ/5 Hours | 1.38 mEQ/5 Hours | 13.5 mL
CCOC(=O)N=P(c1ccccc1)(c1ccccc1)c1cccc(Cl)c1 [[(3-chlorophenyl)diphenylphosphoranylidene]carbamic acid, ethyl ester] | 0.64 mEQ/5 Hours | 2.32 mEQ/5 Hours | 23.8 mL
CCOC(=O)N=P(c1ccccc1)(c1ccccc1)c1cccc(Cl)c1Cl [[(2,3-dichlorophenyl)diphenylphosphoranylidene]carbamic acid ethyl ester] | 0.86 mEQ/5 Hours | 1.83 mEQ/5 Hours | 14.3 mL
CCOC(=O)N=P(c1ccccc1)(c1ccccc1Cl)c1ccccc1Cl [[bis(2-chlorophenyl)phenylphosphoranylidene]carbamic acid, ethyl ester] | 0.38 mEQ/5 Hours | 2.40 mEQ/5 Hours | 22.3 mL
